The record followed here is patent publication US20110059015A1, “VACCINE” (priority 2002, published 2011).

This test concerns Fab S8-gp120 III-B binding. The test is described as follows: Peptide inhibition of gp120-Fab S8 binding (ELISA). Further details: species or system HIV-1. The method, then: Peptides from selected phage clones were synthesised by Isogen (Maarssen, The Netherlands). For binding competition experiments, purified S8 Fab (1 μg/ml) was incubated (4° C., 4 h) with several dilutions of the corresponding peptide before addition to gp120III-B (2 μg/ml)-coated microtiter wells.
In general terms: In an ELISA, binding on a coated surface is turned into a signal by an enzyme label.

[1] abbreviates: peptide 50 μg/ml (124R1: a similar concentration), Fab S8 1 μg/ml.

Turning to GIQLANPPRLYG [Fab 124R9], under setting [1], the “inhibition of Fab S8-gp120 binding” value amounted to 50%. FLQPPDFSHLPP [Fab 124R1]: under setting [1], the “inhibition of Fab S8-gp120 binding” value was 15%.

In the case of LLADTTHHRPWT [Fab 124R4], the “inhibition of Fab S8-gp120 binding” value under setting [1] turned out to be 50%. In the case of “QEVGKAMYAPPI [ENV-9, peptide corresponding to gp120 amino acid residues 428-439]”, the “inhibition of Fab S8-gp120 binding” value (peptide concentration not given) is 50%.
